Assays:
doublecortin (DCX) = assay: Ex.3 neuroprotective HIE rat model: doublecortin staining; type: in vivo
Protocol: The sections were heated in 10 mmol/L citrate buffer (pH 6.0) at 100° C. for 10 minutes. Endogenous peroxidase activity was blocked with 3% hydrogen peroxide for 10 minutes and after a second blocking with 5% normal goat serum, the sections were incubated with anti-doublecortin (DCX) antibody, diluted 1:1000 (rabbit polyclonal antibody; Abcam, Cambridge, UK) and anti-vascular endothelial growth factor (VEGF) antibody, diluted 1:100 (mouse monoclonal antibody; Abcam, Cambridge, UK) overnight at 4° C. After rinsing, Alexa Fluor® goat anti-rabbit, diluted 1:1000 and Alexa Fluor® goat anti-mouse, diluted 1:1000 (Invitrogen Inc., Ghent, Belgium) were added and sections were incubated 1 h at room temperature. Mounting medium containing 4′,6-diamidino-2-phenylindole (DAPI) for fluorescent studies was used (Vector Laboratories). Samples were analyzed with the aid of a microscope (Olympus Vanox AHBT3, Olympus), and the ImageJ software (NIH). The percentage of positively stained cells was quantified as a sum of positively stained either DCX or VEGF cells divided by the total number of DAPI positive cells expressed in percentage.
Newborn rat pups were assigned to one of the following 6 groups from postnatal day 4: Sham group (n=24), Vehicle group (n=14), E4 1 mg/kg/per day group (n=11), E4 5 mg/kg/per day group (n=14), E4 10 mg/kg/per day group (n=14), or E4 50 mg/kg/per day group (n=19). From postnatal day 4, rat pups were intraperitoneally injected either vehicle (Vehicle group) or E4 (1, 5, 10, or 50 mg/kg/per day in accordance to the E4 group assignment) or neither vehicle nor E4 (Sham group). At day 7, 30 minutes after last injection, animals were anesthetized with isoflurane (induction, 3.0%; maintenance, 1.5%), and the rat pups from Vehicle and E4 groups passed through surgery encompassing left common carotid artery double ligation and cut. After the procedure, the pups were returned to their dams and were allowed to recover for 1 hour. The pups were then placed in the humidified hypoxic in vivo cabinet (CoyLab, Grass Lake, Mich., USA). Hypoxia was produced by the inhalation of 11%-8% of oxygen balanced by nitrogen at decreased concentration of oxygen for 20 minutes, followed by inhalation of 8% oxygen and 92% nitrogen at constant concentration for 35 minutes. All the manipulations were performed at 37° C. The Sham group went through similar procedures without left common carotid artery ligation followed by hypoxia nor injection. Rat pups recovered with their dams and reared normally until being sacrificed at postnatal day 14.

[1] = Ex.8 therapeutic HIE rat model: brain weight and brain-body weight ratio; type: in vivo; conditions: 10 mg/kg/day E4, PND14, vs vehicle
Protocol: All the compounds used for in vivo studies were dissolved in absolute Ethanol (ETOH) and further diluted in saline solution at a final concentration of ETOH 10%. An equal volume (5 μ1/g) of the solution was injected intraperitoneally (ip) into the pups from study groups. Rat pups from the vehicle group were ip injected a saline solution containing 10% ETOH. Rat pups from the Sham group were not injected at all.
To study the therapeutic effect of estetrol, newborn rat pups were assigned to one of the following 14 groups at postnatal day 7 (FIG. 23(B)): Sham group (n=12), Vehicle (n=15), 5 mg/kg/day E4 (n=11), 10 mg/kg/day E4 (n=11), 5 mg/kg/day E4+1.6 mg/kg/day PROG (n=11), 10 mg/kg/day E4+1.6 mg/kg/day PROG (n=11), 5 mg/kg/day E4+16 mg/kg/day PROG (n=11), 10 mg/kg/day E4+16 mg/kg/day PROG (n=13), 5 mg/kg/day E4+136 ng//kg/day E2 (n=11), 10 mg/kg/day E4+136 ng/kg/day E2 (n=11), 5 mg/kg/day E4+1.6 mg/kg/day PROG+136 ng/kg/day E2 (n=12), 10 mg/kg/day E4+1.6 mg/kg/day PROG+136 ng/kg/day E2 (n=11), 5 mg/kg/day E4+16 mg/kg/day PROG+136 ng/kg/day E2 (n=11), 10 mg/kg/day E4+16 mg/kg/day PROG+136 ng/kg/day (n=12) groups. […] After surgery, the pups were returned to their dams and allowed to recover for 1 hour. The pups were then placed in a humidified hypoxic in vivo cabinet (CoyLab). […]

C[C@]12CC[C@@H]3c4ccc(O)cc4CC[C@H]3[C@@H]1[C@@H](O)[C@@H](O)[C@@H]2O [E4, 1,3,5(10)-estratrien-3,15α,16α,17β-tetrol]
percentage of DCX positively stained cells (doublecortin (DCX); 5 mg/kg E4 ip PND4-7 before HI, CA1): 35.2±3.309%
percentage of DCX positively stained cells (doublecortin (DCX); 5 mg/kg E4 ip PND4-7 before HI, CA2/CA3): 30.3±3.7%
percentage of DCX positively stained cells (doublecortin (DCX); 10 mg/kg E4 ip PND4-7 before HI, CA1): 34.1±6.664%
percentage of DCX positively stained cells (doublecortin (DCX); 10 mg/kg E4 ip PND4-7 before HI, DG): 55.8±5.658%
percentage of DCX positively stained cells (doublecortin (DCX); 10 mg/kg E4 ip PND4-7 before HI, cortex): 52.1±7.762%
brain weight [1]: significantly higher brain weight than the vehicle alone

From patent US9808470B2, “Estrogenic components for use in the treatment of neurological disorders” (UNIVERSITE DE LIEGE, priority 2012, dated 2017)
